Experimental data from ChEMBL document CHEMBL1201862, “PubChem BioAssay data set” (2004).
Active and inactive are the calls of the source. Rule as the data show it, for most assays here: active = IC50 of 20 µM or less and inactive = more.

Experiments:
Hexokinase-1 = molecular target: T1, Hexokinase-1 (Homo sapiens, UniProt P19367); experiment: HK1 enzyme inhibition by HKDC1 hits, SAR follow-up, selectivity assay for HKDC1 inhibitor project, biochemical, set 2, resazurin fluorescence coupled readout (AID 588356); assay type: functional
T1 sequence (P19367 whole entry): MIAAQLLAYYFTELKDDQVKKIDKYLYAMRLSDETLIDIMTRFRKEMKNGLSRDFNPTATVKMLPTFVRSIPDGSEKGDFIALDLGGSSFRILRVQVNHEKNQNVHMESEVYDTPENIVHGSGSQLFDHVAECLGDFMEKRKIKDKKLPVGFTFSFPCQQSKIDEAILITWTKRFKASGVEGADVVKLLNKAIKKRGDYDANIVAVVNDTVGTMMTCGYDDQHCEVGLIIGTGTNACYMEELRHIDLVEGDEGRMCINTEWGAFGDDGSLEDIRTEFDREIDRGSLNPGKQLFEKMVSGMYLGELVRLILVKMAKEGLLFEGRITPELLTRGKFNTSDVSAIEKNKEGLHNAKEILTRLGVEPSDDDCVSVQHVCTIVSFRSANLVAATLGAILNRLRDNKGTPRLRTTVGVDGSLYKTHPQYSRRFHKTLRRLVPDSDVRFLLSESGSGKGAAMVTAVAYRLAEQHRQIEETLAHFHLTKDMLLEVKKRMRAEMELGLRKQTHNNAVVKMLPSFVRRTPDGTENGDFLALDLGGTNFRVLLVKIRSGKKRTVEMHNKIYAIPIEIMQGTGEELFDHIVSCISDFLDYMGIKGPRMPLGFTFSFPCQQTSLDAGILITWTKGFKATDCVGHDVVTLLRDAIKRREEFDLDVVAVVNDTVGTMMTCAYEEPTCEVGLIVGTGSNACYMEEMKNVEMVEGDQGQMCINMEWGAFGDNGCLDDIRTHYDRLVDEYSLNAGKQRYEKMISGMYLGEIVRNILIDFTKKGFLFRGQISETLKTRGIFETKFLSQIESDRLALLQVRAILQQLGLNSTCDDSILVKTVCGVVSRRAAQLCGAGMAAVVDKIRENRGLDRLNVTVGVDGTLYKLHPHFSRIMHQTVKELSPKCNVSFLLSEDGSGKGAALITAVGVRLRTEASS

Hexokinase HKDC1 = molecular target: T2, Hexokinase HKDC1 (Homo sapiens, UniProt Q2TB90); experiment: HKDC1 hexokinase inhibitors, SAR follow-up, biochemical, set 2 (AID 588355); assay type: functional
T2 sequence (Q2TB90 whole entry): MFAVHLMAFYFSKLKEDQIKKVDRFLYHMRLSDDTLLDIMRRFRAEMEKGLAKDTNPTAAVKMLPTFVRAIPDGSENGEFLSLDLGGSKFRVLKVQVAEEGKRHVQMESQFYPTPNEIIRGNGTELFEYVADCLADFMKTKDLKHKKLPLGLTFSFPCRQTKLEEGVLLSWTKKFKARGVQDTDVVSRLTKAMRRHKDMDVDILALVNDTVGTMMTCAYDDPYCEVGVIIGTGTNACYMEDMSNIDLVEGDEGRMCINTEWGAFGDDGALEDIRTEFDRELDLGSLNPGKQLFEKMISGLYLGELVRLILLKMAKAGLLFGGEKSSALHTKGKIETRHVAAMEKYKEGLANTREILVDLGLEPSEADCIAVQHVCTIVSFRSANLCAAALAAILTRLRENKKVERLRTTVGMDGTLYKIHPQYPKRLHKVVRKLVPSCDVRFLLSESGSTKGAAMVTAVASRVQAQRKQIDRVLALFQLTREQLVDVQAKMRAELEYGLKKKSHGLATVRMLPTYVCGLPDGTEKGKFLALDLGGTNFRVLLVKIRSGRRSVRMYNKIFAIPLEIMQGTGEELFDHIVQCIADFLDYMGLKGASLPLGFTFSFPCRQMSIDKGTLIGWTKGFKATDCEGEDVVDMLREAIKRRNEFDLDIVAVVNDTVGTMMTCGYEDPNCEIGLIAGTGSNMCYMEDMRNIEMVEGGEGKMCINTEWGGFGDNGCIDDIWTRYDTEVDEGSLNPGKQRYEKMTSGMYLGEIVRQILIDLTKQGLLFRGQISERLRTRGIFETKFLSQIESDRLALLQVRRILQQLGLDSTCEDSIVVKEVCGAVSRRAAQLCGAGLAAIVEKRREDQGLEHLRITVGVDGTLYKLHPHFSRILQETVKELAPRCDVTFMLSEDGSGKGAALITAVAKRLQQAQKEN

Jurkat [1] = experiment: SAR Analysis of small molecule inhibitors of […] specific antigen receptor-induced NF-kB activation in a Jurkat cell line using a luminescence assay - Set 3. [Related pubchem assays (depositor defined):AID435022, AID435025, AID465]; assay type: functional, cell-based; settings: Homo sapiens
HEK293 [2] = experiment: cytotoxicity in HEK293T NF-kB-Luc cells, SAR follow-up, cytotoxicity control for NF-kB activator project, cell-based, resazurin fluorescence (AID 493251); assay type: functional; settings: Homo sapiens
HEK293 [3] = experiment: SAR Analysis of small molecule inhibitors of B-cell specific antigen receptor-induced NF-kB activation in a HEK-293T cell line using a luminescence assay - Set 2. [Related pubchem assays (depositor defined):AID435022, AID435025, AID489021]; assay type: functional, cell-based; settings: Homo sapiens
HEK293 [4] = experiment: SAR Analysis of small molecule inhibitors of T-cell specific antigen receptor-induced NF-kB activation in a HEK-293T cell line using a luminescence assay - Set 2. [Related pubchem assays (depositor defined):AID435003, AID435012, AID489026]; assay type: functional, cell-based; settings: Homo sapiens
Jurkat [5] = experiment: SAR Analysis of small molecule inhibitors of T-cell specific antigen receptor-induced NF-kB activation in a Jurkat cell line using a luminescence assay - Set 2. [Related pubchem assays (depositor defined):AID435003, AID435012, AID465]; assay type: functional, cell-based; settings: Homo sapiens
[6] = molecular target: Dual specificity protein phosphatase 3 (Homo sapiens, UniProt P51452); experiment: SAR VHR1 Fluorescent Assay for In Vitro dose response studies Set 3. [Related pubchem assays (depositor defined):AID1654, AID1661, AID1878]; assay type: functional
Sequence of Dual specificity protein phosphatase 3 (P51452 whole entry): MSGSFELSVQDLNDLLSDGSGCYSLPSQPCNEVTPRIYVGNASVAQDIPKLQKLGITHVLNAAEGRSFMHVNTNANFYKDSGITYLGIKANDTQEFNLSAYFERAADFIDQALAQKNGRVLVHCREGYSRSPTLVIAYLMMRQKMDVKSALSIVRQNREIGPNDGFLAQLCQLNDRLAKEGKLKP

Compound: O=c1c2cc(Cl)ccc2nc(/C=C/c2cccnc2)n1Cc1ccccc1
- IC50 (Hexokinase-1): > 80 µM (inactive)
- IC50 (Hexokinase HKDC1): > 80 µM (inactive)

Compound: CNC(=O)CCc1nc(-c2ccc(OC)cc2)no1
- IC50 (Jurkat [1]): > 80 µM (inactive)
- IC50 (HEK293 [2]): > 80 µM (inactive)
- IC50 (HEK293 [3]): > 80 µM (inactive)

Compound: CC(C)c1ccc(C(NC(=O)C2CCCCC2)c2cc([N+](=O)[O-])c3cccnc3c2O)cc1 (centres undefined)
- IC50 (HEK293 [2]): 3.96 µM (active)
- IC50 (HEK293 [4]): 11.6 µM (active)
- IC50 (Jurkat [5]): 76.4 µM (inactive)

Compound: COc1ccc(C(=O)Nc2nc3c(OC)ccc(C)c3s2)cc1
- IC50 [6]: 48.7 µM (active)
